Measurements from patent US20230346737A1, “COMPOUNDS AND METHODS FOR PREVENTION AND TREATMENT OF VIRUS INFECTIONS” (priority 2020, published 2023).

What follows are compounds tested against T1, SARS-CoV-2 3CLpro (Severe acute respiratory syndrome coronavirus 2, UniProt P0DTD1) (assay: Real-time FRET protease assay with SARS-CoV-2 3CLpro and dose-response curve analysis). Conditions: not given.
T1 construct: containing 0.25 μM SARS-CoV-2 3CLpro
Type: biochemical
Work on CC1=CCC(C(C)(C)O)C[C@@H]1O (stereo partly drawn) [ARH013-DS1, trans-p-menth-6-ene-2,8-diol] yielded an IC50 of 32.9 µM.

Same assay, conditions: Real-Time; 0-100 μM, pre-incubated 1 h at 37° C. with 0.25 μM 3CLpro; read-out: IC50 (μM), inhibition of SARS-CoV-2 3CLpro (Real-Time)
Compound CC(=O)O[C@@H]1[C@@H](OC(C)=O)[C@@H](O)[C@H](Oc2c(-c3ccc(O)cc3)oc3cc(O)cc(O)c3c2=O)O[C@H]1C [ARH 007-DS4, kaempferol-3-O-(3,4-O-diacetyl-Alpha-L-rhamnopyranoside)] has an IC50 of 18.8 µM. Compound CC(=O)O[C@@H]1[C@@H](O)[C@@H](OC(C)=O)[C@H](Oc2c(-c3ccc(O)cc3)oc3cc(O)cc(O)c3c2=O)O[C@H]1C [ARH 007-DS5, kaempferol-3-O-(2,4-O-diacetyl-Alpha-L-rhamnopyranoside)] has an IC50 of 48.2 µM. CC(=O)/C=C(O)/C=C/c1ccc(O)c(O)c1 [ARH 019-DS1, 6-(3,4-dihydroxyphenyl)-4-hydroxyhexa-3,5-dien-2-one] gave an IC50 of 19.2 µM. Compound O=c1cc(O)oc(/C=C/c2ccc(O)c(O)c2)c1 [ARH 019-DS2, 2-[(E)-2-(3,4-dihydroxyphenyl)ethenyl]-6-hydroxypyran-4-one] has an IC50 of 2.49 µM. In the case of C=C1CCCC(C)(C)C1Cc1c(O)cc2oc(-c3ccc(O)c(O)c3)cc(=O)c2c1O (stereo not drawn) [ARH 020-DS1, ugonin J], the IC50 is reported as 14.9 µM. CC1(C)CCC[C@@]2(C)Oc3c(O)ccc(-c4oc5cc(O)cc(O)c5c(=O)c4O)c3C[C@@H]12 [ARH 020-DS2, ugonin N] was tested, and the IC50 was 6.33 µM.

Each compound was assayed against T2, sodium taurocholate cotransporting polypeptide (NTCP) (Homo sapiens, UniProt Q14973) (assay: PreS1-NTCP pull down assay). Conditions: 0, 10, 20 and 100 μM.
T2 construct: expressed in transfected cells; host or cells: Huh7 (NTCP); E. coli BL21(DE3) (GST fusion bait)
T2 sequence (Q14973 1-349): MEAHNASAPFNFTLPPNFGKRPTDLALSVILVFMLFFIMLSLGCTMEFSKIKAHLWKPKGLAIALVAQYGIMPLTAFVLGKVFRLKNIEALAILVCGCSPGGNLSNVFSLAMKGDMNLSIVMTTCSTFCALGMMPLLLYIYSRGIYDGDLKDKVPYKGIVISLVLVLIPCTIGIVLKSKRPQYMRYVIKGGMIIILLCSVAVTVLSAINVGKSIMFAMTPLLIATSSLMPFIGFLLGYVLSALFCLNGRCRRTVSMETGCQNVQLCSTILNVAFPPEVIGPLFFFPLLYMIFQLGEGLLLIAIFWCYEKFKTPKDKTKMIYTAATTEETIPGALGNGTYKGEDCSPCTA
Type: binding
Procedure: Expression and purification of recombinant fusion proteins and the GST pull-down assay were performed as described previously. Briefly, expression of GST fusion proteins in E. coli BL21(DE3) was induced with 0.5 mM isopropyl-β-D-thiogalactopyranoside, then the bacterial cells were lysed by sonication at 4° C. in PBS containing 1% Triton X-100 (PBST) and separated into soluble and insoluble fractions by centrifugation at 13,800 g for 10 min at 4° C. To perform GST pull-down assays, the soluble fraction of bacterial lysates containing GST-fusion proteins was incubated for 3 hours at 4° C. with glutathione-Sepharose 4B beads (GE Healthcare Bio-Sciences), then the beads were washed 3 times with PBST before being incubated at 4° C. overnight with Huh7 cell lysate with overexpressed IA-NTCP prepared by lysis in PBST containing a protease inhibitor cocktail (1 mM PMSF, 10 μg/ml of aprotinin, 1 μg/ml of pepstatin A, 1 μg/ml of leupeptin). The beads were then washed with PBST, resuspended in sample buffer (12.5 mM Tris-HCl, pH 6.8, 2% SDS, 20% glycerol, 0.25% bromphenol blue, 5% b-mercaptoethanol), and subjected to SDS-polyacrylamide gel electrophoresis and examined by Western blot analysis.
To evaluate the effects of inhibitor on inhibiting HBV infection, cell lysis extracted from cells treated with AR101-DS3 or AR101-DS4.
For C=C(CC[C@@H](C(=O)O)[C@H]1C[C@H](OC(C)=O)[C@@]2(C)C3=C(CC[C@]12C)[C@@]1(C)CC[C@H](O)C(C)(C)[C@@H]1CC3)C(C)C [AR101-DS3], the “amount of NTCP from pull down assay” value was “dose dependent increase”. C=C(CC[C@@H](C(=O)O)[C@H]1CC[C@@]2(C)C3=CC[C@H]4C(C)(C)[C@@H](O)CC[C@]4(C)C3=CC[C@]12C)C(C)C [AR101-DS4] was tested, and the “amount of NTCP from pull down assay” value was “significant decreased”.
